Converted amounts (≈) assume the structure as drawn. Read-outs that look alike come from different tables or passages of the source.
Tests used:
Sa-ClpP = molecular target: T1, Sa-ClpP (Staphylococcus aureus, UniProt Q2G036); test: ADEP displacement fluorescence polarization assay; format: binding, S. aureus; details: 1 μM Sa-ClpP, 50 nM FP probe ADEP 2591; read-out: ADEP Displacement IC50
T1 construct: made in house; host or cells: E. coli BL21 (DE3)
Procedure, shortened: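 Displacement of TAMRA-labelled ADEP 2591 probe (50 nM) from 1 μM Sa-ClpP, pre-equilibrated 1 h in Tris·HCl pH 8.0 with 2% DMSO, then 120 min at room temperature with compound, triplicate. Polarization (mP) read ex 530/em 579 nm, normalised to 20 μM ADEP 2378 and DMSO controls; four-parameter fit.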

S. pyogenes ATCC 700294 = test: Minimal inhibitory concentration, microbroth dilution; format: cell-based
Procedure, shortened: (§1)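 Twofold serial dilutions in broth per CLSI M7-A7 microbroth dilution, incubated aerobically overnight at 37° C. MIC read visually as lowest concentration preventing bacterial growth.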

[1] = Cytotoxicity assay, CellTiter-Glo cell viability; format: cell-based; details: African green monkey; Vero cells, 72 hours; read-out: Cytotoxicity IC50
Procedure, shortened: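 Vero cells seeded overnight at 37 °C in DMEM with 10% FBS, then exposed to serial dilutions of compound for 72 h. Viability read by CellTiter-Glo luminescence; IC50 from duplicates, given as the range of two independent experiments.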

B. subtilis ATCC 23857 = test: Minimal inhibitory concentration, microbroth dilution; format: cell-based
Procedure, shortened: (§2)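 Compound was diluted twofold in the appropriate broth. Bacterial suspension (approx. 10^5 cfu/mL) was then added in equal volume, giving a maximum test concentration of 200 μM. After aerobic overnight incubation at 37 °C, wells were inspected visually for growth.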

E. faecails ATCC 33186 = test: as above; format: cell-based; details: Enterococcus faecalis, ATCC33186, read-out: Minimal Inhibitory Concentration E. faecails ATCC 33186
Procedure, shortened: as §2

S. aureus ATCC 29213 = test: as above; format: cell-based
Procedure, shortened: as §2

S. pneumoniae DAW27 = test: as above; format: cell-based
Procedure, shortened: as §2

S. aureus ClpP (Sa-ClpP) = molecular target: T2, S. aureus ClpP (Sa-ClpP) (Staphylococcus aureus, UniProt Q2G036); test: ClpP activation, casein-BODIPY digestion assay (first described method); format: biochemical; details: first described ClpP activation assay (**); 10 μM saClpP, 25 μg/ml BODIPY FL casein, 37° C.; read-out: ClpP Activation EC50
T2 construct: made in house; host or cells: E. coli BL21 (DE3)
T2 sequence (Q2G036 whole entry): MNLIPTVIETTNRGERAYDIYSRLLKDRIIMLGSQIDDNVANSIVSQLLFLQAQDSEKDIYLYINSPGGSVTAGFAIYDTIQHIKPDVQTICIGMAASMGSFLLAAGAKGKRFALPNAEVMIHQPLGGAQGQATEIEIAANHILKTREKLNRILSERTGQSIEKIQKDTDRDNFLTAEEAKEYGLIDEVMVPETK
Procedure: The compounds were assayed in a casein digestion assay in order to determine their effect on ClpP activation. Briefly, the assay was carried out using S. aureus ClpP (“Sa-ClpP”) overexpressed in E. coli BL21 (DE3) and purified in a two-step process. Purity of the protein was assessed through SDS PAGE analysis. EC50 evaluations were conducted in triplicate in a 20 μl assay format using a method adapted from Maurizi et al. (Methods Enzymol. (1994) 244:314-331.). Each well contained 10 μM saClpP, 25 μg/ml BODIPY FL casein (Invitrogen Corporation, San Diego, Calif.), and test compound in concentrations ranging between 0-100 μM in assay buffer (50 mM Tris pH 8, 200 mM KCl, and 1 mM TCEP). The reaction took place at 37° C. Fluorescence (excitation 485 nm; emission 528 nm) was measured in five minute intervals over a 45 min period using a BioTek HT fluorescence microplate reader (BioTek Instruments, Inc., Winooski, Vt.). Velocity of each reaction was calculated and data was fit to a dose response curve using GraphPad Prism® software (GraphPad Software, Inc., La Jolla, Calif.). EC50 is the effective concentration of compound which causes 50% activation of S. aureus ClpP in the foregoing BODIPY FL casein assay.

S. pneumoniae R6 = test: Minimal inhibitory concentration, microbroth dilution; format: cell-based; details: Streptococcus pneumoniae, R6; read-out: Minimal Inhibitory Concentration S. pneumoniae R6
Procedure, shortened: as §1

S. aureus USA 300 ΔClpP = test: as above; format: cell-based, Staphylococcus aureus; details: ClpP inactivated strain
Procedure, shortened: as §2

S. aureus NRS70 = test: as above; format: cell-based; details: Staphylococcus aureus, NRS70; read-out: Minimal Inhibitory Concentration S. aureus NRS70
Procedure, shortened: as §2

S. aureus USA 300 = test: as above; format: cell-based; details: Staphylococcus aureus, USA300; read-out: Minimal Inhibitory Concentration S. aureus USA 300
Procedure, shortened: as §2

E. coli K12ΔtolC = test: as above; format: cell-based
Procedure, shortened: as §2

[2] = Streptococcus pyogenes, ATCC700294, read-out: Minimal Inhibitory Concentration S. pyogenes ATCC 700294
[3] = Bacillus subtilis, ATCC23857, read-out: Minimal Inhibitory Concentration B. subtilis ATCC 23857
[4] = Staphylococcus aureus, ATCC29213, read-out: Minimal Inhibitory Concentration S. aureus ATCC 29213
[5] = Streptococcus pneumoniae, DAW27, read-out: Minimal Inhibitory Concentration S. pneumoniae DAW27
[6] = Streptococcus pyogenes, ATCC700294; read-out: Minimal Inhibitory Concentration S. pyogenes ATCC 700294
[7] = Bacillus subtilis, ATCC23857; read-out: Minimal Inhibitory Concentration B. subtilis ATCC 23857
[8] = Staphylococcus aureus, ATCC29213; read-out: Minimal Inhibitory Concentration S. aureus ATCC 29213

T1 sequence (Q2G036 whole entry): as above

For `C[C@@H]1C[C@H]2C(=O)OC[C@H](NC(=O)[C@H](Cc3ccccc3)NC(=O)Nc3ccc4ccn(C)c4c3)C(=O)N3CCC[C@H]3C(=O)N3CCCC[C@H]3C(=O)N[C@@H](C)C(=O)N2C1` [Compound 12, (S)—N-((2R,6S,8aS,14aS,20S,23aS)-2,6-Dimethyl-5,8,14,19,23-Pentaoxooctadecahydro-1H,5H,14H,19H-Pyrido[2,1-I]Dipyrrolo[2,1-C:2′,1′-L][1]Oxa[4,7,10,13]Tetraazacyclohexadecin-20-Yl)-2-(3-(1-Methyl-1H-Indol-6-Yl)Ureido)-3-Phenylpropanamide], the IC50 (Sa-ClpP) was 6.81 ± 0.4 µM, the MIC (S. pyogenes ATCC 700294; [2]) was 0.6 µM (≈ 0.478 µg/mL) and the IC50 at 72 h [1] was 90 ± 7.6 µM. The MIC (B. subtilis ATCC 23857; [3]) was 2.5 µM (≈ 1.99 µg/mL), the MIC (E. faecails ATCC 33186) was 1.25 µM (≈ 0.996 µg/mL) and the MIC (S. aureus ATCC 29213; [4]) was 2.5 µM (≈ 1.99 µg/mL). For the same molecule, the MIC (S. pneumoniae DAW27; [5]) was 0.3 µM (≈ 0.239 µg/mL) and the EC50 (S. aureus ClpP (Sa-ClpP)) was 3.2 ± 0.5 µM.
For `CCc1ccc(NC(=O)N[C@@H](Cc2cc(F)cc(F)c2)C(=O)N[C@@H]2C(=O)N3CCCC3C(=O)N(C)[C@@H]([C@H](C)O)C(=O)N[C@@H](C)C(=O)N3C[C@@H](C)CC3C(=O)O[C@H]2C)cc1` (stereo partly drawn) [Compound 37, (S)-3-(3,5-Difluorophenyl)-2-(3-(4-Ethylphenyl)Ureido)-N-((2S,6S,9S,11aS,17S,18S,20aS)-9-((S)-1-Hydroxyethyl)-2,6,10,18-Tetramethyl-5,8,11,16,20-Pentaoxohexadecahydro-1H,5H,16H-Dipyrrolo[2,1-C:2′,1′-L][1]Oxa[4,7,10,13]Tetraazacyclohexadecin-17-Yl)Propanamide], the MIC (S. pyogenes ATCC 700294; [6]) was 0.1 µM (≈ 0.0826 µg/mL), the MIC (S. pneumoniae R6) was 0.024 µM (≈ 0.0198 µg/mL) and the “Minimal Inhibitory Concentration S. aureus USA 300 ΔClpP” value (S. aureus USA 300 ΔClpP) was 100 µM. The MIC (B. subtilis ATCC 23857; [7]) was 0.05 µM (≈ 0.0413 µg/mL), the MIC (S. aureus ATCC 29213; [8]) was 0.1 µM (≈ 0.0826 µg/mL) and the MIC (S. aureus NRS70) was 0.1 µM (≈ 0.0826 µg/mL). The MIC (S. aureus USA 300) was 0.1 µM (≈ 0.0826 µg/mL).
In the case of `NC[C@H]1O[C@H](O[C@H]2[C@H](O)[C@@H](O[C@H]3O[C@H](CO)[C@@H](O)[C@H](N)[C@H]3O)[C@H](N)C[C@@H]2N)[C@H](O)[C@@H](O)[C@@H]1O` [Kanamycin, kanamycin, reference compound], the “Minimal Inhibitory Concentration E. coli K12ΔtolC” value (E. coli K12ΔtolC) is reported as 0.4 µM and the MIC (S. pneumoniae DAW27; Streptococcus pneumoniae, DAW27; read-out: Minimal Inhibitory Concentration S. pneumoniae DAW27) is reported as 25 µM (≈ 12.1 µg/mL).
`C[C@@H]1C[C@H]2C(=O)OC[C@H](NC(=O)[C@H](Cc3ccccc3)NC(=O)Nc3ccccc3)C(=O)N3CCC[C@H]3C(=O)N3CCCC[C@H]3C(=O)N[C@@H](C)C(=O)N2C1` [Compound 1, (S)—N-((2R,6S,8aS,14aS,20S,23aS)-2,6-Dimethyl-5,8,14,19,23-Pentaoxooctadecahydro-1H,5H,14H,19H-Pyrido[2,1-I]Dipyrrolo[2,1-C:2′,1′-L][1]Oxa[4,7,10,13]Tetraazacyclohexadecin-20-Yl)-3-Phenyl-2-(3-Phenylureido)Propanamide] gave an IC50 (Sa-ClpP) of 6.72 ± 0.4 µM, an MIC (S. pyogenes ATCC 700294; [2]) of 1.56 µM (≈ 1.16 µg/mL) and an IC50 at 72 h [1] greater than 100 µM. The MIC (B. subtilis ATCC 23857; [3]) was 1.56 µM (≈ 1.16 µg/mL), the MIC (E. faecails ATCC 33186) was 3.13 µM (≈ 2.33 µg/mL) and the MIC (S. aureus ATCC 29213; [4]) was 6.25 µM (≈ 4.65 µg/mL). The “Minimal Inhibitory Concentration E. coli K12ΔtolC” value (E. coli K12ΔtolC) was 200 µM, the MIC (S. pneumoniae DAW27; [5]) was 0.78 µM (≈ 0.58 µg/mL) and the EC50 (S. aureus ClpP (Sa-ClpP)) was 3.6 ± 0.4 µM.
For `C[C@@H]1CC2C(=O)O[C@@H](C)[C@H](NC(=O)[C@H](Cc3cc(F)cc(F)c3)NC(=O)Nc3ccc(OC(F)(F)F)cc3)C(=O)N3CCCC3C(=O)N(C)[C@@H]([C@H](C)O)C(=O)N[C@@H](C)C(=O)N2C1` (stereo partly drawn) [Compound 41, (S)-3-(3,5-Difluorophenyl)-N-((2R,6S,9S,11aS,17S,18S,20aS)-9-((S)-1-Hydroxyethyl)-2,6,10,18-Tetramethyl-5,8,11,16,20-Pentaoxohexadecahydro-1H,5H,16H-Dipyrrolo[2,1-C:2′,1′-L][1]Oxa[4,7,10,13]Tetraazacyclohexadecin-17-Yl)-2-(3-(4-(Trifluoromethoxy)Phenyl)Ureido)Propanamide], the MIC (S. pyogenes ATCC 700294; [6]) was 0.1 µM (≈ 0.0882 µg/mL), the MIC (S. pneumoniae R6) was 0.02 µM (≈ 0.0176 µg/mL) and the “Minimal Inhibitory Concentration S. aureus USA 300 ΔClpP” value (S. aureus USA 300 ΔClpP) was 50 µM. The MIC (B. subtilis ATCC 23857; [7]) was 0.01 µM (≈ 0.00882 µg/mL), the MIC (S. aureus ATCC 29213; [8]) was 0.02 µM (≈ 0.0176 µg/mL) and the MIC (S. aureus NRS70) was 0.01 µM (≈ 0.00882 µg/mL). For the same molecule, the MIC (S. aureus USA 300) was 0.02 µM (≈ 0.0176 µg/mL).
